# According to patent US20250353891A1 (MEDIMMUNE LIMITED, priority 2022, published 2025):
# Starred links: 1 amine or outer side, 2 acyl side, 3 side chain; linkers in the order of their positions; H or OH if unused. Non-standard residues stand in square brackets, D forms with d. Residues, ends and D or L forms follow the SMILES beside them. Groups on a side chain read outwards from the residue. *: point of attachment. C20 diacid = O=C(O)CCCCCCCCCCCCCCCCCCC(=O)*; C18 diacid = O=C(O)CCCCCCCCCCCCCCCCC(=O)*; γGlu = O=C(O)[C@H](CCC(=O)[*:2])N[*:1]; αMeF = C[C@](N)(Cc1ccccc1)C(=O)O; AEEA = NCCOCCOCC(=O)O; Aib = CC(C)(N)C(=O)O
# Legend:
# [1] = biological target: human GLP-1 receptor (hGLP-1R) (Homo sapiens, UniProt P43220); assay: cAMP production (HTRF) in CHO cells expressing hGLP-1R; format: cell-based; parameters: expressed in transfected cells; details: for EC50: Table 6, peptides modified at position 17, cAMP in CHO hGLP-1R cells, geometric mean, read-out: hGLP-1R EC50; for % Relative Potency Ratio: Table 6, % GLP-1R activity relative to GLP-1 / % GlucR activity relative to glucagon
# Sequence of human GLP-1 receptor (hGLP-1R) (P43220 24-463): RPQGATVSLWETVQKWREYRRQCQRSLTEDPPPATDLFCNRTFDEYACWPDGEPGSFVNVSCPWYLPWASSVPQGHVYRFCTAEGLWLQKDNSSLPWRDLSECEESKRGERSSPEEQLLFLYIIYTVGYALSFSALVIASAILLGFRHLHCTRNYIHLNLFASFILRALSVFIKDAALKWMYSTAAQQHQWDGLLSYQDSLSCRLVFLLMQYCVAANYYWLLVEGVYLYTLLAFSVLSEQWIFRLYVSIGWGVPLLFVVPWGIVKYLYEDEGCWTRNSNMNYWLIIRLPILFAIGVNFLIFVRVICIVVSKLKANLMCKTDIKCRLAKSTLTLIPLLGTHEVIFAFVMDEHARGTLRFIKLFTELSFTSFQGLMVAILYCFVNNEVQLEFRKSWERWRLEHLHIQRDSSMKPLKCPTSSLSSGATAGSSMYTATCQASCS
# Procedure, shortened: (§1)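 Potency values represent EC50 from 4-parameter logistic curves of HTRF % Delta F signal. Receptor-expressing CHO cells (hGCGR 2×10^5 cells/mL, hGLP-1R 1×10^5 cells/mL) were exposed for 30 min at room temperature before two-step cAMP detection.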
# [2] = biological target: human glucagon receptor (hGCGR) (Homo sapiens, UniProt P47871); assay: cAMP production (HTRF) in CHO cells expressing hGCGR; format: cell-based; parameters: expressed in transfected cells; details: Table 6, peptides modified at position 17; cAMP in CHO hGCGR cells; geometric mean; read-out: hGluc-R EC50
# Sequence of human glucagon receptor (hGCGR) (P47871 26-477): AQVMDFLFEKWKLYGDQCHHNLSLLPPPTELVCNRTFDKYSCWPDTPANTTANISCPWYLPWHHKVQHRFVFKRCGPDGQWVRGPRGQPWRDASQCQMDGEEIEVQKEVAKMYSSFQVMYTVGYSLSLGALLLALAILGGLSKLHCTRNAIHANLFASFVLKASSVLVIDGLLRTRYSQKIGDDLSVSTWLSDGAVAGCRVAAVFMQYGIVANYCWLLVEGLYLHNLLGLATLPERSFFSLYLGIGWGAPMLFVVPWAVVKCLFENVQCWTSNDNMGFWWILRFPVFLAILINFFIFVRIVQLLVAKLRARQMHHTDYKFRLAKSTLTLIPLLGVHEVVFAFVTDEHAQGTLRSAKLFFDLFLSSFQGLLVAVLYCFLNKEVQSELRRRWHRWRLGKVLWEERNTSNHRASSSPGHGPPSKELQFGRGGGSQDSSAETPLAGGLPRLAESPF
# Procedure, shortened: as §1
Structure (SMILES),EC50 [1] [nM],% Relative Potency Ratio [1],EC50 [2] [nM]
CC(C)C[C@H](NC(=O)[C@H](Cc1c[nH]c2ccccc12)NC(=O)[C@H](C)NC(=O)[C@@H](NC(=O)[C@H](Cc1ccccc1)NC(=O)[C@H](CC(=O)O)NC(=O)[C@H](CCCNC(=N)N)NC(=O)[C@H](C)NC(=O)[C@H](CCCNC(=N)N)NC(=O)[C@H](CCCCNC(=O)COCCOCCNC(=O)COCCOCCNC(=O)CC[C@H](NC(=O)CCCCCCCCCCCCCCCCC(=O)O)C(=O)O)NC(=O)[C@@H](NC(=O)[C@H](CC(=O)O)NC(=O)[C@H](CC(C)C)NC(=O)[C@](C)(Cc1ccccc1)NC(=O)[C@H](CCCCN)NC(=O)[C@H](CO)NC(=O)[C@@H](NC(=O)[C@H](CC(=O)O)NC(=O)[C@H](CO)NC(=O)[C@@H](NC(=O)[C@H](Cc1ccccc1)NC(=O)[C@@H](NC(=O)CNC(=O)[C@H](CCC(N)=O)NC(=O)C(C)(C)NC(=O)[C@@H](N)Cc1c[nH]cn1)[C@@H](C)O)[C@@H](C)O)C(C)C)[C@@H](C)O)C(C)C)C(=O)N[C@@H](CC(C)C)C(=O)NC(C)(C)C(=O)N[C@H](C(=O)N[C@@H](CCC(=O)O)C(=O)O)[C@@H](C)O [Peptide 409] (H-H[Aib]QGTFTSDVSK[αMeF]LDTK([AEEA-AEEA-γGlu-C18 diacid])RARDFVAWLL[Aib]TE-OH; N-terminus assumed),0.0227,17.7,0.203
CC(C)C[C@H](NC(=O)[C@H](Cc1c[nH]c2ccccc12)NC(=O)[C@H](C)NC(=O)[C@@H](NC(=O)[C@H](Cc1ccccc1)NC(=O)[C@H](CC(=O)O)NC(=O)[C@H](CCC(N)=O)NC(=O)[C@H](C)NC(=O)[C@H](CCCNC(=N)N)NC(=O)[C@H](CCCCNC(=O)COCCOCCNC(=O)COCCOCCNC(=O)CC[C@H](NC(=O)CCCCCCCCCCCCCCCCCCC(=O)O)C(=O)O)NC(=O)[C@@H](NC(=O)[C@H](CC(=O)O)NC(=O)[C@H](CC(C)C)NC(=O)[C@](C)(Cc1ccccc1)NC(=O)[C@H](CCCCN)NC(=O)[C@H](CO)NC(=O)[C@@H](NC(=O)[C@H](CC(=O)O)NC(=O)[C@H](CO)NC(=O)[C@@H](NC(=O)[C@H](Cc1ccccc1)NC(=O)[C@@H](NC(=O)CNC(=O)[C@H](CCC(N)=O)NC(=O)C(C)(C)NC(=O)[C@@H](N)Cc1c[nH]cn1)[C@@H](C)O)[C@@H](C)O)C(C)C)[C@@H](C)O)C(C)C)C(=O)N[C@@H](CCC(=O)O)C(=O)N[C@@H](C)C(=O)NCC(=O)NCC(=O)O [Peptide 412] (H-H[Aib]QGTFTSDVSK[αMeF]LDTK([AEEA-AEEA-γGlu-C20 diacid])RAQDFVAWLEAGG-OH; N-terminus assumed),0.186,4.2,0.397
CC(C)C[C@H](NC(=O)[C@H](Cc1c[nH]c2ccccc12)NC(=O)[C@H](C)NC(=O)[C@@H](NC(=O)[C@H](Cc1ccccc1)NC(=O)[C@H](CC(=O)O)NC(=O)[C@H](CCC(N)=O)NC(=O)[C@H](C)NC(=O)[C@H](CCCNC(=N)N)NC(=O)[C@H](CCCCNC(=O)COCCOCCNC(=O)COCCOCCNC(=O)CC[C@H](NC(=O)CC[C@H](NC(=O)CCCCCCCCCCCCCCCCCCC(=O)O)C(=O)O)C(=O)O)NC(=O)[C@@H](NC(=O)[C@H](CC(=O)O)NC(=O)[C@H](CC(C)C)NC(=O)[C@](C)(Cc1ccccc1)NC(=O)[C@H](CCCCN)NC(=O)[C@H](CO)NC(=O)[C@@H](NC(=O)[C@H](CC(=O)O)NC(=O)[C@H](CO)NC(=O)[C@@H](NC(=O)[C@H](Cc1ccccc1)NC(=O)[C@@H](NC(=O)CNC(=O)[C@H](CCC(N)=O)NC(=O)C(C)(C)NC(=O)[C@@H](N)Cc1c[nH]cn1)[C@@H](C)O)[C@@H](C)O)C(C)C)[C@@H](C)O)C(C)C)C(=O)N[C@@H](CCC(=O)O)C(=O)N[C@@H](C)C(=O)NCC(=O)NCC(=O)O [Peptide 413],0.406,5.0,1.02
CC(C)C[C@H](NC(=O)[C@H](Cc1c[nH]c2ccccc12)NC(=O)[C@H](CCCNC(=N)N)NC(=O)[C@@H](NC(=O)[C@H](Cc1ccccc1)NC(=O)[C@H](CC(=O)O)NC(=O)[C@H](CCCNC(=N)N)NC(=O)[C@H](C)NC(=O)[C@H](CCCNC(=N)N)NC(=O)[C@H](CCCCNC(=O)COCCOCCNC(=O)COCCOCCNC(=O)CC[C@H](NC(=O)CCCCCCCCCCCCCCCCC(=O)O)C(=O)O)NC(=O)[C@H](CCCCN)NC(=O)[C@H](CC(=O)O)NC(=O)[C@H](CC(C)C)NC(=O)[C@](C)(Cc1ccccc1)NC(=O)[C@H](CCCCN)NC(=O)[C@H](CO)NC(=O)[C@@H](NC(=O)[C@H](CC(=O)O)NC(=O)[C@H](CO)NC(=O)[C@@H](NC(=O)[C@H](Cc1ccccc1)NC(=O)[C@@H](NC(=O)CNC(=O)[C@H](CCC(N)=O)NC(=O)C(C)(C)NC(=O)[C@@H](N)Cc1c[nH]cn1)[C@@H](C)O)[C@@H](C)O)C(C)C)C(C)C)C(=O)N[C@@H](CC(C)C)C(=O)NC(C)(C)C(=O)N[C@@H](CCC(=O)O)C(=O)O [Peptide 414] (H-H[Aib]QGTFTSDVSK[αMeF]LDKK([AEEA-AEEA-γGlu-C18 diacid])RARDFVRWLL[Aib]E-OH; N-terminus assumed),0.0323,1.6,0.0269

# More lines, now with the values ahead:
EC50 [1] [nM],% Relative Potency Ratio [1],EC50 [2] [nM],Structure (SMILES)
0.078,11.5,0.455,CC(C)C[C@H](NC(=O)[C@H](Cc1c[nH]c2ccccc12)NC(=O)[C@H](C)NC(=O)[C@@H](NC(=O)[C@H](Cc1ccccc1)NC(=O)[C@H](CC(=O)O)NC(=O)[C@H](CCCNC(=N)N)NC(=O)[C@H](C)NC(=O)[C@H](CCCNC(=N)N)NC(=O)[C@H](CCCCNC(=O)COCCOCCNC(=O)COCCOCCNC(=O)CC[C@H](NC(=O)CCCCCCCCCCCCCCCCCCC(=O)O)C(=O)O)NC(=O)[C@@H](NC(=O)[C@H](CC(=O)O)NC(=O)[C@H](CC(C)C)NC(=O)[C@](C)(Cc1ccccc1)NC(=O)[C@H](CCCCN)NC(=O)[C@H](CO)NC(=O)[C@@H](NC(=O)[C@H](CC(=O)O)NC(=O)[C@H](CO)NC(=O)[C@@H](NC(=O)[C@H](Cc1ccccc1)NC(=O)[C@@H](NC(=O)CNC(=O)[C@H](CCC(N)=O)NC(=O)C(C)(C)NC(=O)[C@@H](N)Cc1c[nH]cn1)[C@@H](C)O)[C@@H](C)O)C(C)C)[C@@H](C)O)C(C)C)C(=O)N[C@@H](CC(C)C)C(=O)NC(C)(C)C(=O)N[C@H](C(=O)N[C@@H](CCC(=O)O)C(=O)O)[C@@H](C)O [Peptide 410] (H-H[Aib]QGTFTSDVSK[αMeF]LDTK([AEEA-AEEA-γGlu-C20 diacid])RARDFVAWLL[Aib]TE-OH; N-terminus assumed)
0.0981,7.6,0.378,CC(C)C[C@H](NC(=O)[C@H](Cc1c[nH]c2ccccc12)NC(=O)[C@H](C)NC(=O)[C@@H](NC(=O)[C@H](Cc1ccccc1)NC(=O)[C@H](CC(=O)O)NC(=O)[C@H](CCC(N)=O)NC(=O)[C@H](C)NC(=O)[C@H](CCCNC(=N)N)NC(=O)[C@H](CCCCNC(=O)COCCOCCNC(=O)COCCOCCNC(=O)CC[C@H](NC(=O)CCCCCCCCCCCCCCCCC(=O)O)C(=O)O)NC(=O)[C@@H](NC(=O)[C@H](CC(=O)O)NC(=O)[C@H](CC(C)C)NC(=O)[C@](C)(Cc1ccccc1)NC(=O)[C@H](CCCCN)NC(=O)[C@H](CO)NC(=O)[C@@H](NC(=O)[C@H](CC(=O)O)NC(=O)[C@H](CO)NC(=O)[C@@H](NC(=O)[C@H](Cc1ccccc1)NC(=O)[C@@H](NC(=O)CNC(=O)[C@H](CCC(N)=O)NC(=O)C(C)(C)NC(=O)[C@@H](N)Cc1c[nH]cn1)[C@@H](C)O)[C@@H](C)O)C(C)C)[C@@H](C)O)C(C)C)C(=O)N[C@@H](CCC(=O)O)C(=O)N[C@@H](C)C(=O)NCC(=O)NCC(=O)O [Peptide 411] (H-H[Aib]QGTFTSDVSK[αMeF]LDTK([AEEA-AEEA-γGlu-C18 diacid])RAQDFVAWLEAGG-OH; N-terminus assumed)
0.0147,40.6,0.301,CC(C)C[C@H](NC(=O)[C@H](Cc1c[nH]c2ccccc12)NC(=O)[C@H](CCCNC(=N)N)NC(=O)[C@@H](NC(=O)[C@H](Cc1ccccc1)NC(=O)[C@H](CC(=O)O)NC(=O)[C@H](CCC(N)=O)NC(=O)[C@H](C)NC(=O)[C@H](CCCNC(=N)N)NC(=O)[C@H](CCCCNC(=O)COCCOCCNC(=O)COCCOCCNC(=O)CC[C@H](NC(=O)CCCCCCCCCCCCCCCCC(=O)O)C(=O)O)NC(=O)[C@H](CO)NC(=O)[C@H](CCC(=O)O)NC(=O)[C@H](CC(C)C)NC(=O)[C@](C)(Cc1ccccc1)NC(=O)[C@H](CCCCN)NC(=O)[C@H](CO)NC(=O)[C@@H](NC(=O)[C@H](CC(=O)O)NC(=O)[C@H](CO)NC(=O)[C@@H](NC(=O)[C@H](Cc1ccccc1)NC(=O)[C@@H](NC(=O)CNC(=O)[C@H](CCC(N)=O)NC(=O)C(C)(C)NC(=O)[C@@H](N)Cc1c[nH]cn1)[C@@H](C)O)[C@@H](C)O)C(C)C)C(C)C)C(=O)N[C@@H](CCC(=O)O)C(=O)N[C@@H](C)C(=O)NC(C)(C)C(=O)NCC(=O)O [Peptide 415] (H-H[Aib]QGTFTSDVSK[αMeF]LESK([AEEA-AEEA-γGlu-C18 diacid])RAQDFVRWLEA[Aib]G-OH; N-terminus assumed)
